From patent publication US5081121A, “4(1H)-quinolone derivatives” (priority 1988, dated 1992)
Read-outs that look alike come from different tables or passages of the source.

Tested on: left atrial muscle
Test: Test Method 1: enhancement of contracting force of left atrial muscle extirpated from a guinea pig (electrically stimulated at 1 Hz)
Type: cell-based
Conditions: Krebs-Henseleit solution 32° C.; for EC20: read-out: EC20 (molar concentration for enhancing the left atrial muscle contracting force to the level of 20%); for EC50: read-out: EC50 (molar concentration for enhancing the left atrial muscle contracting force to the level of 50%); for EC100: read-out: EC100 (molar concentration for enhancing the left atrial muscle contracting force to the level of 100%)
Description: The drug according to the present invention was evaluated with reference to the physiological activities by means of a method using an atrial muscle extirpated from a guinea pig.
Male guinea pigs having a body weight of 300-500 g were made swooned by striking his head and were bleeded to death. The heart was extirpated and the right and left atrial muscles were cut off. The tops of each atrial muscle were fixed with cerrefines. The muscle was suspended into an organ-bath in which a Krebs-Henseleit solution (at 32° C.) was filled, and a 95% O2 -5% CO2 gas was flown through the bath. The left atrial muscle was stimulated electrically at a frequency of 1 Hz to stabilize the contracting force of the left atrial muscle. Then, the compounds according to the present invention represented by the general formulae were added to the organ-bath. As for the right atrial muscle, after the pulsation was stabilized, the compounds according to the present invention were added in the organ-bath in the same manner as described above.
The compounds according to the present invention represented by the aforementioned general formulae enhanced the left atrial muscle contracting force dependent on their concentrations. The drug concentrations for enhancing the left atrial muscle contracting force to the levels of 20%, 50% and 100%, respectively are listed in Table 2. EC20, EC50 and EC100 indicate the molar concentration for enhancing the left atrial muscle contracting force to the levels of 20%, 50% and 100%, respectively. The enhancing rates of the pulsation of the right atrial muscle are also listed within parentheses. The minus values in parentheses indicate that the pulsation of the right atrial muscle is decreased.
As a control drug, theophylline ([…].

Row | Structure (SMILES) | EC50 (Cavia porcellus) | EC50 | EC20 (Cavia porcellus) | EC100 (Cavia porcellus) | EC20 (molar concentration for enhancing the left atrial muscle contracting force to the level of 20%) | EC100 (molar concentration for enhancing the left atrial muscle contracting force to the level of 100%)
1 | CC(=O)c1cccc2c(=O)cc[nH]c12 [Compound 44, 8-acetyl-4(1H)-quinolone] | 136 µM | – | < 100 µM | 776 µM | – | –
2 | N#CCc1ccc2[nH]ccc(=O)c2c1 [Compound 45, 6-cyanomethyl-4(1H)-quinolone] | 274 µM | – | < 100 µM | 510 µM | – | –
3 | COCCOc1cc2[nH]ccc(=O)c2cc1OC [Compound 55, 6-methoxy-7-(2-methoxy)ethoxy-4(1H)-quinolone] | 394 µM | – | 132 µM | – | – | –
4 | COCOc1cc2[nH]ccc(=O)c2cc1OC [Compound 56, 6-methoxy-7-methoxymethoxy-4(1H)-quinolone] | 405 µM | – | 114 µM | – | – | –
5 | CCn1ccc(=O)c2ccc(C)cc21 [Compound 57, 1-ethyl-7-methyl-4(1H)-quinolone] | 248 µM | – | < 100 µM | – | – | –
6 | CCn1ccc(=O)c2cc3c(cc21)OCO3 [Compound 60, 1-ethyl-6,7-methylenedioxy-4(1H)-quinolone] | 279 µM | – | < 100 µM | – | – | –
7 | O=c1cc[nH]c2ccc(CCO)cc12 [Compound 64, 6-(2-hydroxy)ethyl-4(1H)-quinolone] | 234 µM | – | 157 µM | 495 µM | – | –
8 | CCOC(=O)c1ccc2[nH]ccc(=O)c2c1 [Compound 65, 6-ethoxycarbonyl-4(1H)-quinolone] | 345 µM | – | < 100 µM | – | – | –
9 | O=c1cc[nH]c2cc(N3CCNCC3)ccc12 [Compound 67, 7-piperazinyl-4(1H)-quinolone] | 211 µM | – | 46.8 µM | 944 µM | – | –
10 | CCOc1cc2c(cc1OC)c(=O)ccn2CC(C)C [Compound 69, 1-i-butyl-7-ethoxy-6-methoxy-4(1H)-quinolone] | 462 µM | – | 4.32 µM | – | – | –
11 | C=CCc1cccc2c(=O)cc[nH]c12 [Compound 70, 8-(2-propenyl)-4(1H)-quinolone] | 159 µM | – | < 100 µM | – | – | –
12 | C/C=C/Cc1c(O)c(OC)cc2c(=O)cc[nH]c12 [Compound 72, 8-(2-trans-butenyl)-7-hydroxy-6-methoxy-4(1H)-quinolone] | – | 63.1 µM | – | – | 35.5 µM | 211 µM
13 | CCOCCOC(=O)c1c[nH]c2c(OC)ccc(OCC)c2c1=O [Compound 79, 5-ethoxy-3-[(2-ethoxy)ethoxycarbonyl]-8-methoxy-4(1H)-quinolone] | 135 µM | – | < 100 µM | 680 µM | – | –
14 | CCOC(=O)c1cn(CC)c2c(C)ccc(OC(C)=O)c2c1=O [Compound 82, 5-acetoxy-3-ethoxycarbonyl-1-ethyl-8-methyl-4(1H)-quinolone] | 168 µM | – | < 100 µM | – | – | –
15 | CCOC(=O)c1c[nH]c2c(S(=O)(=O)c3ccccc3)cccc2c1=O [Compound 83, 3-ethoxycarbonyl-8-phenylsulfonyl-4(1H)-quinolone] | 363 µM | – | 19.5 µM | – | – | –
16 | CCn1cc(C(=O)O)c(=O)c2c(C)cccc21 [Compound 87, 3-carboxyl-1-ethyl-5-methyl-4(1H)-quinolone] | 327 µM | – | < 100 µM | – | – | –
17 | CCOc1cc2c(=O)c(C(=O)O)cn(CC)c2c(C)c1C [Compound 88, 3-carboxyl-7,8-dimethyl-6-ethoxy-1-ethyl-4(1H)-quinolone] | 202 µM | – | < 100 µM | 856 µM | – | –
18 | COc1cc2c(=O)c(C(=O)O)cn(C)c2c(C)c1C [Compound 89, 3-carboxyl-6-methoxy-1,7,8-trimethyl-4(1H)-quinolone] | 657 µM | – | < 100 µM | – | – | –
19 | CCn1cc(C(=O)O)c(=O)c2cc(C)ccc21 [Compound 90, 3-carboxyl-1-ethyl-6-methyl-4(1H)-quinolone] | 345 µM | – | 181 µM | 394 µM | – | –
20 | CCCn1cc(C(=O)O)c(=O)c2cc(OC)c(OCC)cc21 [Compound 93, 3-carboxyl-7-ethoxy-6-methoxy-1-n-propyl-4(1H)-quinolone] | 465 µM | – | 376 µM | – | – | –
21 | O=c1cc(C2CC2)[nH]c2ccccc12 [Compound 96, 2-cyclopropyl-4(1H)-quinolone] | 374 µM | – | 123 µM | – | – | –
22 | COc1cc2[nH]cc(C(=O)N3CCC(c4ccccc4)CC3)c(=O)c2cc1OC [Compound 105, 6,7-dimethoxy-3-(4-phenylpiperidinyl)carbonyl-4(1H)-quinolone] | 221 µM | – | < 100 µM | – | – | –
23 | COc1ccc(C)c2c(=O)c(C(=O)N3CCC(c4ccccc4)CC3)c[nH]c12 [Compound 106, 8-methoxy-5-methyl-3-(4-phenylpiperidinyl)carbonyl-4(1H)-quinolone] | 245 µM | – | 102 µM | 447 µM | – | –
24 | CCn1cc(C(=O)N2CCN(c3ccccc3OC)CC2)c(=O)c2cc(C)ccc21 [Compound 108, 1-ethyl-3-{1-[4-(2-methoxyphenyl)piperazinyl]carbonyl}-6-methyl-4(1H)-quinolone] | 126 µM | – | 44.2 µM | – | – | –
25 | CCn1cc(C(=O)N2CCN(c3ccc([N+](=O)[O-])cc3)CC2)c(=O)c2cc(OC)c(OC)cc21 [Compound 110, 6,7-dimethoxy-1-ethyl-3-{1-[4-(4-nitrophenyl)piperazinyl]carbonyl}-4(1H)-quinolone] | 178 µM | – | 105 µM | – | – | –
26 | CCCCOc1cc2[nH]c(C3CC3)cc(=O)c2cc1OC [Compound 115, 7-n-butoxy-2-cyclopropyl-6-methoxy-4(1H)-quinolone] | 81.3 µM | – | 15.3 µM | 202 µM | – | –

Continued, in another order:

Row | EC50 (Cavia porcellus) | EC50 | Structure (SMILES) | EC20 (Cavia porcellus) | EC100 (Cavia porcellus) | EC20 (molar concentration for enhancing the left atrial muscle contracting force to the level of 20%) | EC100 (molar concentration for enhancing the left atrial muscle contracting force to the level of 100%)
27 | 35.5 µM | – | COc1cc2[nH]ccc(=O)c2cc1OC [Compound 6, 6,7-dimethoxy-4(1H)-quinolone] | 10 µM | 234 µM | – | –
28 | 19.3 µM | – | CCOc1cc2[nH]ccc(=O)c2cc1OCC [Compound 10, 6,7-diethoxy-4(1H)-quinolone] | 1.88 µM | 116 µM | – | –
29 | 78.5 µM | – | COc1cc(SC)c2[nH]ccc(=O)c2c1 [Compound 30, 6-methoxy-8-methylsufenyl-4(1H)-quinolone] | 6.92 µM | 881 µM | – | –
30 | < 100 µM | – | CCOc1cc(OC)cc2c(=O)cc[nH]c12 [Compound 47, 8-ethoxy-6-methoxy-4(1H)-quinolone] | < 100 µM | 200 µM | – | –
31 | 106 µM | – | CCOc1cc2c(=O)cc[nH]c2cc1OC [Compound 48, 6-ethoxy-7-methoxy-4(1H)-quinolone] | 12.6 µM | 646 µM | – | –
32 | 117 µM | – | C=CCOc1cc2[nH]ccc(=O)c2cc1OC [Compound 53, 7-allyloxy-6-methoxy-4(1H)-quinolone] | < 100 µM | 240 µM | – | –
33 | 107 µM | – | CCn1ccc(=O)c2c(O)ccc(C)c21 [Compound 61, 1-ethyl-5-hydroxy-8-methyl-4(1H)-quinolone] | < 100 µM | – | – | –
34 | 112 µM | – | CCn1ccc(=S)c2cc3c(cc21)OCO3 [Compound 63] | 42.2 µM | – | – | –
35 | 19.5 µM | – | CCCCn1ccc(=O)c2cc(OC)c(OCC)cc21 [Compound 68, 1-n-butyl-7-ethoxy-6-methoxy-4(1H)-quinolone] | 2.82 µM | – | – | –
36 | 54.3 µM | – | Cc1cc(Cl)cc2c(=O)cc[nH]c12 [Compound 71, 6-chloro-8-methyl-4(1H)-quinolone] | 12.3 µM | – | – | –
37 | 115 µM | – | CCn1ccc(=O)c2cc(OC)ccc21 [Compound 73, 1-ethyl-6-methoxy-4(1H)-quinolone] | < 100 µM | 241 µM | – | –
38 | 108 µM | – | CCOc1ccc2c(c1)c(=O)ccn2CC [Compound 74, 6-ethoxy-1-ethyl-4(1H)-quinolone] | < 100 µM | 546 µM | – | –
39 | 73.3 µM | – | CCOC(=O)c1c[nH]c2c(OC)cc(OCC)cc2c1=O [Compound 76, 6-ethoxy-3-ethoxycarbonyl-8-methoxy-4(1H)-quinolone] | 38.9 µM | 305 µM | – | –
40 | 50.1 µM | – | CCOC(=O)c1cn(CC)c2c(OC)cc(OCC)cc2c1=O [Compound 77, 6-ethoxy-3-ethoxycarbonyl-1-ethyl-8-methoxy-4(1H)-quinolone] | 4.73 µM | – | – | –
41 | < 100 µM | – | COc1cc2[nH]c(-c3ccco3)cc(=O)c2cc1OC [Compound 94, 6,7-dimethoxy-2-(2-furyl)-4(1H)-quinolone] | < 100 µM | 417 µM | – | –
42 | 84.1 µM | – | CCOc1cc2c(=O)cc(C3CC3)[nH]c2cc1OC [Compound 119, 2-cyclopropyl-6-ethoxy-7-methoxy-4(1H)-quinolone] | 37.6 µM | – | – | –
